These results are taken from patent publication US20160280688A1, “SUBSTITUTED PHENYLALANINE DERIVATIVES” (BAYER PHARMA AKTIENGESELLSCHAFT, priority 2013, published 2016).

Holding throughout (format): biochemical
One experiment has as its target T1, human factor XIa (Homo sapiens, UniProt P03951).
T1 construct: purchased Kordia
Description: Measurement of FXIa inhibition (fluorogenic peptide substrate Boc-Glu(OBzl)-Ala-Arg-AMC). The following applies: factor XIa from Kordia, 15 min preincubation, 30 min at 22° C., fluorescence. How it is done:
To determine the factor XIa inhibition of the substances according to the invention, a biochemical test system is used which utilizes the reaction of a peptidic factor XIa substrate to determine the enzymatic activity of human factor XIa. Here, factor XIa cleaves from the peptic factor XIa substrate the C-terminal aminomethylcoumarin (AMC), the fluorescence of which is measured. The determinations are carried out in microtitre plates.
(§1) Test substances are dissolved in dimethyl sulphoxide and serially diluted in dimethyl sulphoxide (3000 μM to 0.0078 μM; resulting final concentrations in the test: 50 μM to 0.00013 μM). In each case 1 μl of the diluted substance solutions are placed into the wells of white microtitre plates from Greiner (384 wells). Subsequently, the following are added successively: 20 μl of assay buffer (50 mmol/l Tris buffer pH 7.4; 100 mmol/l sodium chloride; 5 mmol/l calcium chloride; 0.1% bovine serum albumin) and 20 μl of factor XIa from Kordia (0.45 nM in assay buffer). After 15 min of incubation, the enzyme reaction is started by addition of 20 μl of the factor XIa substrate Boc-Glu(OBzl)-Ala-Arg-AMC dissolved in assay buffer (10 μM in assay buffer) from Bachem, the mixture is incubated at room temperature (22° C.) for 30 min and fluorescence is then measured (excitation: 360 nm, emission: 460 nm). The measured emissions of the test batches with test substance are compared to those of control batches without test substance (only dimethyl sulphoxide instead of test substance in dimethyl sulphoxide), and IC50 values are calculated from the concentration/activity relationships.

The next experiment has as its system human and animal plasma. Nature of the experiment: Determination of the anticoagulatory activity: activated partial thromboplastin time (aPTT) in plasma. The following applies: in vitro in plasma, C.K. Prest kit, 3 min at 37° C. As for the experimental part:
The anticoagulatory activity of the test substances is determined in vitro in human and animal plasma (for example mouse, rat, rabbit, pig and dog plasma). To this end, blood is drawn off in a mixing ratio of sodium citrate/blood of 1:9 using a 0.11 molar sodium citrate solution as receiver. Immediately after the blood has been drawn off, it is mixed thoroughly and centrifuged at about 4000 g for 15 minutes. The supernatant is pipetted off.
The activated partial thromboplastin time (aPTT) is determined in the presence of varying concentrations of test substance or the corresponding solvent using a commercial test kit (C.K. Prest from Diagnostica Stago). The test compounds are incubated with the plasma and the PTT reagent (cephalin, kaolin) at 37° C. for 3 minutes. Coagulation is then started by addition of a 25 mM aqueous calcium chloride solution, and the time when coagulation occurs is determined. The concentration of test substance which brings about a 1.5-fold extension of the aPTT is determined Activity data from this test are listed in Table B below: […]

For another experiment, the target named is T2, human plasmin (Homo sapiens, UniProt P00747).
T2 construct: purchased Kordia
Description: Measurement of plasmin inhibition (fluorogenic peptide substrate MeOSuc-Ala-Phe-Lys-AMC). The following applies: plasmin from Kordia, 15 min preincubation, 30 min at 22° C., fluorescence. As for the experimental part: The plasmin inhibition of the inventive substances is determined using a biochemical test system which utilizes the reaction of a peptidic plasmin substrate to determine the enzymatic activity of human plasmin. Here, plasmin cleaves from the peptic plasmin substrate the C-terminal aminomethylcoumarin (AMC), the fluorescence of which is measured. The determinations are carried out in microtitre plates.
as §1, with “plasmin” for “factor XIa”, “(0.3 μg/ml” for “(0.45 nM”, “MeOSuc-Ala-Phe-Lys-AMC” for “Boc-Glu(OBzl)-Ala-Arg-AMC”, “(150” for “(10”, “ICso” for “IC50”

Structures can show the parent of a compound that is named as a salt.

T1 sequence (P03951 388-625 limits assumed): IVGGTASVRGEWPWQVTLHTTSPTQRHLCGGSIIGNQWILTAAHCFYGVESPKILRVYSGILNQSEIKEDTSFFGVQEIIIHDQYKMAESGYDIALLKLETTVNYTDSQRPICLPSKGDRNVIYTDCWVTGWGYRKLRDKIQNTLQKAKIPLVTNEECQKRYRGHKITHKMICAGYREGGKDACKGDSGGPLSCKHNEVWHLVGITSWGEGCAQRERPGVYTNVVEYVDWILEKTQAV
T1 sequence (P03951 19-387 partner limits assumed): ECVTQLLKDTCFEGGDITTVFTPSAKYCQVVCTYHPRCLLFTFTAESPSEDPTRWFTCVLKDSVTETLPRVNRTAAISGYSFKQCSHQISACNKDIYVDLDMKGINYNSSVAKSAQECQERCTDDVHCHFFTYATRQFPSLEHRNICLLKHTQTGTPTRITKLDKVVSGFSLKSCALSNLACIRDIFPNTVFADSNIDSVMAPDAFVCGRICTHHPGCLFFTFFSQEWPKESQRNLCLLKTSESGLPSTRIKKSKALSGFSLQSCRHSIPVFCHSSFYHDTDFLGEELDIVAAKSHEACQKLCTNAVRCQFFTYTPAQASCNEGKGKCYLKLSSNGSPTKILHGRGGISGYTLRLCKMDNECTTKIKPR
T2 sequence (P00747 581-810 limits assumed): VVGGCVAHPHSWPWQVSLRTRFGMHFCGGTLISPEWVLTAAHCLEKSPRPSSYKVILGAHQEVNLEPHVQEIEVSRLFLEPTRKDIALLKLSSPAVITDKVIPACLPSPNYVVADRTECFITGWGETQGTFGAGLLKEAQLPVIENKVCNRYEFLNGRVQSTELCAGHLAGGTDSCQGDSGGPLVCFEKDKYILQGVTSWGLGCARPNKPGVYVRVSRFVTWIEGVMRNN
T2 sequence (P00747 97-580 partner limits assumed): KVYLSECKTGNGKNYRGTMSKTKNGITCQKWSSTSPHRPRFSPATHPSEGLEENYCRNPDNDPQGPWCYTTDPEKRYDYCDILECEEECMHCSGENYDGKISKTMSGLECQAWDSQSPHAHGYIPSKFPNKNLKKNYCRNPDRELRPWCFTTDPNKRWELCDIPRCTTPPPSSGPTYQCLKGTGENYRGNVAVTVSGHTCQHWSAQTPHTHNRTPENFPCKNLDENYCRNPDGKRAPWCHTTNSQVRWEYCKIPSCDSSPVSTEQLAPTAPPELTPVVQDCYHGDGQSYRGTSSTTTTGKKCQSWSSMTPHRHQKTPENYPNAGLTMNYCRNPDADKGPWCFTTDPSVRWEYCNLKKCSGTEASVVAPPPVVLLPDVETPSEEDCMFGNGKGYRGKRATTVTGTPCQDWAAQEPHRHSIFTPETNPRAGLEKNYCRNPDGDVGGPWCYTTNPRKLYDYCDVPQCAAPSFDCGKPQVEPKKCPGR

By IC50 is commonly meant the concentration that gives 50% inhibition. Higher therefore signals lower potency. Take `Cc1cc2[nH]c(C(C)C)nc2cc1-c1ccc(C[C@H](NC(=O)[C@H]2CC[C@H](CN)CC2)C(=O)Nc2ccc3nc(C(F)(F)C(F)(F)F)[nH]c3c2)cc1` [Example 25, N-alpha-{[trans-4-(Aminomethyl)cyclohexyl]carbonyl}-4-(2-isopropyl-6-methyl-1H-benzimidazol-5-yl)-N-[2-(pentafluoroethyl)-1H-benzimidazol-6-yl]-L-phenylalaninamide hydrochloride]: the half-maximal inhibitory concentration (IC50) came to 13 nM against human factor XIa and 1.7 nM at human plasmin. In addition, the “aPTT (concentration of test substance which brings about a 1.5-fold extension of the aPTT)” value in the experiment on human and animal plasma turned out to be 0.96 µmol/L.
For `Cc1c(-c2ccc(C[C@H](NC(=O)[C@H]3CC[C@H](CN)CC3)C(=O)Nc3ccc4[nH]c(=O)[nH]c4c3)cc2)cc2nc(C3CCC3)[nH]c2c1F` [Example 27, N-alpha-{[trans-4-(Aminomethyl)cyclohexyl]carbonyl}-4-(2-cyclobutyl-7-fluoro-6-methyl-1H-benzimidazol-5-yl)-N-(2-oxo-2,3-dihydro-1H-benzimidazol-5-yl)-L-phenylalaninamide] the same measures were 0.9 nM, 0.45 nM and 0.16 µmol/L.
For `Cc1cc2nc[nH]c2cc1-c1ccc(C[C@H](NC(=O)[C@H]2CC[C@H](CN)CC2)C(=O)Nc2ccc3c(=O)[nH][nH]c3c2)cc1` [Example 30, N-alpha-{[trans-4-(Aminomethyl)cyclohexyl]carbonyl}-4-(5-methyl-1H-benzimidazol-6-yl)-N-(3-oxo-2,3-dihydro-1H-indazol-6-yl)-L-phenylalaninamide hydrochloride], the IC50 came to 1.7 nM against human factor XIa and 5.9 nM against human plasmin. The “aPTT (concentration of test substance which brings about a 1.5-fold extension of the aPTT)” value in the experiment with human and animal plasma (hydrochloride) was 0.07 µmol/L.
As to `CC(C)c1nc2cc(C(F)(F)F)c(-c3ccc(C[C@H](NC(=O)[C@H]4CC[C@H](CN)CC4)C(=O)Nc4ccc5[nH]c(=O)[nH]c5c4)cc3)cc2[nH]1` [Example 31, N-alpha-{[trans-4-(Aminomethyl)cyclohexyl]carbonyl}-4-[2-isopropyl-5-(trifluoromethyl)-1H-benzimidazol-6-yl]-N-(2-oxo-2,3-dihydro-1H-benzimidazol-5-yl)-L-phenylalaninamide hydrochloride], the IC50 at human factor XIa amounted to 3.1 nM; on human plasmin it was 2.1 nM. The “aPTT (concentration of test substance which brings about a 1.5-fold extension of the aPTT)” value in the experiment on human and animal plasma worked out at 0.07 µmol/L.
In the case of `CC(C)n1[nH]c2cc(-c3ccc(C[C@H](NC(=O)[C@H]4CC[C@H](CN)CC4)C(=O)Nc4ccc5cn[nH]c5c4)cc3)ccc2c1=O` [Example 32, N-alpha-{[trans-4-(Aminomethyl)cyclohexyl]carbonyl}-N-1H-indazol-6-yl-4-(2-isopropyl-3-oxo-2,3-dihydro-1H-indazol-6-yl)-L-phenylalaninamide hydrochloride], the values for the IC50 on human factor XIa and at human plasmin were 28 nM and 8.7 nM, respectively. Besides, the “aPTT (concentration of test substance which brings about a 1.5-fold extension of the aPTT)” value in the experiment with human and animal plasma is 0.43 µmol/L.
On to `CC(C)n1[nH]c2cc(-c3ccc(C[C@H](NC(=O)[C@H]4CC[C@H](CN)CC4)C(=O)Nc4ccc5[nH]c(=O)[nH]c5c4)cc3)ccc2c1=O` [Example 33, N-alpha-{[trans-4-(Aminomethyl)cyclohexyl]carbonyl}-4-(2-isopropyl-3-oxo-2,3-dihydro-1H-indazol-6-yl)-N-(2-oxo-2,3-dihydro-1H-benzimidazol-5-yl)-L-phenylalaninamide hydrochloride], for which the IC50 on human factor XIa turned out to be 17 nM; against human plasmin, 5.9 nM. Besides, the “aPTT (concentration of test substance which brings about a 1.5-fold extension of the aPTT)” value in the experiment on human and animal plasma came to 0.1 µmol/L.
The corresponding values for `Cc1cc2c(=O)n(C(C)C)[nH]c2cc1-c1ccc(C[C@H](NC(=O)[C@H]2CC[C@H](CN)CC2)C(=O)Nc2ccc3[nH]c(=O)[nH]c3c2)cc1` [Example 34, N-alpha-{[trans-4-(Aminomethyl)cyclohexyl]carbonyl}-4-(2-isopropyl-5-methyl-3-oxo-2,3-dihydro-1H-indazol-6-yl)-N-(2-oxo-2,3-dihydro-1H-benzimidazol-5-yl)-L-phenylalaninamide hydrochloride] are 1.5 nM, 1.7 nM and 0.11 µmol/L.
For `CC(C)c1nc2c(F)c(F)c(-c3ccc(C[C@H](NC(=O)[C@H]4CC[C@H](CN)CC4)C(=O)Nc4ccc5[nH]c(=O)[nH]c5c4)cc3)cc2[nH]1` [Example 35, N-alpha-{[trans-4-(Aminomethyl)cyclohexyl]carbonyl}-4-(4,5-difluoro-2-isopropyl-1H-benzimidazol-6-yl)-N-(2-oxo-2,3-dihydro-1H-benzimidazol-5-yl)-L-phenylalaninamide hydrochloride] the same measures were 6.9 nM, 1.5 nM and 0.54 µmol/L.
As to `Cc1cc2nc(C3CC3)nn2cc1-c1ccc(C[C@H](NC(=O)[C@H]2CC[C@H](CN)CC2)C(=O)Nc2ccc3[nH]c(=O)[nH]c3c2)cc1` [Example 36, N-alpha-{[trans-4-(Aminomethyl)cyclohexyl]carbonyl}-4-(2-cyclopropyl-7-methyl[1,2,4]triazolo[1,5-a]pyridin-6-yl)-N-(2-oxo-2,3-dihydro-1H-benzimidazol-5-yl)-L-phenylalaninamide hydrochloride], the IC50 at human factor XIa came to 3.6 nM; at human plasmin, 1.2 nM. The “aPTT (concentration of test substance which brings about a 1.5-fold extension of the aPTT)” value in the experiment with human and animal plasma was 0.08 µmol/L.
The corresponding values for `Cc1cc2nc(C(C)C)[nH]c2nc1-c1ccc(C[C@H](NC(=O)[C@H]2CC[C@H](CN)CC2)C(=O)Nc2ccc3[nH]c(=O)[nH]c3c2)cc1` [Example 37, N-alpha-{[trans-4-(Aminomethyl)cyclohexyl]carbonyl}-4-(2-isopropyl-6-methyl-3H-imidazo[4,5-b]pyridin-5-yl)-N-(2-oxo-2,3-dihydro-1H-benzimidazol-5-yl)-L-phenylalaninamide hydrochloride] are 4.9 nM, 0.5 nM and 0.06 µmol/L.
